No end group written: not given here.

We go through six substances from PMC9965520, “An Efficient Peptidomics Screening for Exogenous Substrates and Inhibitory Peptides of the Dipeptidase ACE from Milk Hydrolysate” (Pharmaceutics, 2023).

For the series, the target named is T1, ACE (Oryctolagus cuniculus, UniProt P12822).
T1 sequence (P12822 34-1310): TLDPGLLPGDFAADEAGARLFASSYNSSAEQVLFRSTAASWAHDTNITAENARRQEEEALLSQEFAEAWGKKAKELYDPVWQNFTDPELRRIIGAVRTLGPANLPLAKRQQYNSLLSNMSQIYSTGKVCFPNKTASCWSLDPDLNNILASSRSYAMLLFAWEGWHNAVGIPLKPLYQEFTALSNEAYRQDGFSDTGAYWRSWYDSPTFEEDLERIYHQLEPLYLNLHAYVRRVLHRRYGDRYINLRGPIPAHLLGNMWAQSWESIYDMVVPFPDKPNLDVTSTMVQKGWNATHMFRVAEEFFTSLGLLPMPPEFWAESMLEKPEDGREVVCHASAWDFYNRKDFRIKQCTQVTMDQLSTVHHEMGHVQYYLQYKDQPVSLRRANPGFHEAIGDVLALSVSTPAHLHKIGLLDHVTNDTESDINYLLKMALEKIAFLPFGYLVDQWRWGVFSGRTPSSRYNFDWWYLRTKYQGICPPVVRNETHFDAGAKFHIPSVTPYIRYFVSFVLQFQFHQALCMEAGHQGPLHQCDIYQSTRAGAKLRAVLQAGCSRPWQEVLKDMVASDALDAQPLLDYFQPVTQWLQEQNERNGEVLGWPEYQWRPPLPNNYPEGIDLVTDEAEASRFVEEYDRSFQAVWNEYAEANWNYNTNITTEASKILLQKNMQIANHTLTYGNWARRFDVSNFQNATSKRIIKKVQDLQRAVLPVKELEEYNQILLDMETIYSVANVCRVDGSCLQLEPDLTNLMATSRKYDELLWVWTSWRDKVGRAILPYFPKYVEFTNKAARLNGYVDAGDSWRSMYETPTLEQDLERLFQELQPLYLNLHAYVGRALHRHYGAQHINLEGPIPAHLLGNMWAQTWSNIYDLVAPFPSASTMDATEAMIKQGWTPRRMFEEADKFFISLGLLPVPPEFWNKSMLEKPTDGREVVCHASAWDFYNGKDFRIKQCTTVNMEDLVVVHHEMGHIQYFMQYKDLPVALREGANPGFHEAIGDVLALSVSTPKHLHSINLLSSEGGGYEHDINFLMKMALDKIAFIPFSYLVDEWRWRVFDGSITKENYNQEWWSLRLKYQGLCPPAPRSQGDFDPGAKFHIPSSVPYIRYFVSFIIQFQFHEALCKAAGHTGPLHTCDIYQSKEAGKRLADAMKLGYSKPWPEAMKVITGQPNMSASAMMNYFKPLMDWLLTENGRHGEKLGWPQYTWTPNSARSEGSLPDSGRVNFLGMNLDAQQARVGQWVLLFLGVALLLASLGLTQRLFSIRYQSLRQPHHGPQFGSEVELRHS
In words: ACE pre-incubation of milk hydrolysate peptide libraries, stable-isotope dimethyl labeling and LC-MS/MS (D/H ratio). Format: in vitro ADME, rabbit. Also on record: ACE (EC 3.4.15.1, 1 unit) from rabbit lungs; purchased Sigma Chemical Co. (St. Louis, MO, USA); host or cells: rabbit lungs (tissue-derived enzyme). The following applies: milk hydrolysate peptide library (<3 kDa); ACE-treated (0.05 mU/μL ACE, borate buffer, 37 °C, 3 h: 1.5 h static + 1.5 h 200 rpm; D-labeled) versus untreated (H-labeled) peptide; intensity ratio in LC-MS; <1 = hydrolysed by ACE. The protocol:
The peptide libraries (200 μg) dissolved in borate buffer were equally divided into two parts, one was without any treatment (control group); the other part (experimental group) was incubated with 0.05 mU/μL ACE at 37℃ for 1.5 h statically, followed by gentle shaking at 200 rpm for another 1.5 h, and then the ACE reaction was quenched using 60 μL of 1N HCl. After lyophilization, both samples were redissolved in 100 μL of 0.1M sodium acetate and modified using stable-isotope dimethyl labeling according to the previous study with slight modifications. Briefly, the control group (without ACE incubation) had 4 μL of formaldehyde (37% solution in H2O) and 1 M NaBH3CN (10 μL) added to it; the experimental group had 20% formaldehyde-d2 (8 μL) and 1M NaBH3CN (10 μL) added to it. After 1h, 5 μL of ammonia (28% solution in H2O) were added individually to both groups to stop the reaction. The experimental group and the control group were combined and desalted using the PepClean™C18 spin column. The resulting peptide mixture was lyophilized and kept at −20 °C prior to LC-MS/MS analysis. Formaldehyde is known to the state of California to cause cancer; special caution was taken including the use of surgical gloves and a fume hood when formaldehyde was handled.
The combined mixture re-dissolved in 5% ACN containing 0.1% formic acid was separated using an Ultimate 3000 RSLC system (Dionex, Sunnyvale, CA, USA) coupled with a C18 column (Acclaim PepMap RSLC, 75 μm × 150 mm, Thermo Scientific, Waltham, Middlesex, MA, USA) and analyzed with a Thermo Q-ExactiveTM mass spectrometer (Thermo Scientific Inc., Waltham, Middlesex, MA, USA). The elution solution was composed of mobile phase A (0.1% formic acid in water) and B (0.1% formic acid in 95% acetonitrile). The elution gradient was arranged as follows: (i) isocratic elution using 1% B in the first 5.5 min for sample loading, (ii) linear gradient from 1% to 60% B in the next 39.5 min, (iii) linear gradient from 60% to 80% B in the following 10 min, and finally (iv) isocratic elution using 1% solution B for 10 min. The flow rate applied in the LC separation was maintained at 250 µL/min. The separated peptides were analyzed and quantified using Q-ExactiveTM mass spectrometry which was operated in the data-dependent mode and switched automatically between MS and HCD-MS2. A full MS scan was carried out in a 100 and 1500 m/z range, and the 14 ions of the highest intensities were selected for MS/MS scans. The RAW data were converted to the MGF file format followed by database-assisted sequencing with PEAKS DB using PEAKS Studio X (Bioinformatics Solutions Inc., Waterloo, ON, Canada). The parameters used for peptide identification were listed as follows: (1) Database: UniProt_SwissProt (Bos taurus); (2) Enzyme: pepsin, trypsin, α-chymotrypsin, or GI (the combination of these three proteases); (3) Type of enzyme: Unspecific; (4) Instrument: Orbitrap; (5) Parent mass error tolerance: 20 ppm; (6) Fragment mass error tolerance: 0.6 Da; (7) Variable modifications: Dimethyl (K), Dimethyl (N-term), Dimethyl:2H(4) (K), and Dimethyl:2H(4) (N-term) were used for identification and quantitative analysis. The sequence identified through the database was validated by manually matching with the MS/MS spectrum in the raw data. In addition to MS/MS analysis coupled with PEAKS studio, the ACE’s substrate candidates were further confirmed using the synthetic peptides with corresponding sequences by comparison with their LC retention times, m/z values, and MS/MS spectra. The relative abundances of hydrogen (H) and deuterium (D) labeled peptides were quantified based on the peak areas in their corresponding selective ion chromatograms (SIC). The D/H ratio of identified peptide with the same sequence was further examined by their relative signal intensities in MS spectrum. Theoretically, the D/H ratio of the isobaric pair should stay at 1 if the peptide will not react with ACE. […]
As to LHLPLPLL [LL-8], the “D/H Ratio” value stood at 0.74. Regarding HLPLPLLQSW [HW-10], the “D/H Ratio” value amounted to 0.12.

AYFYPELFR [AR-9]: the “D/H Ratio” value is on record as 0.19. YVPLGTQ [YQ-7]: the “D/H Ratio” value is 0.33. Turning to LVYPFPGPIHNSL [LL-13], the “D/H Ratio” value worked out at 0.26.

Regarding FFVAPFPEVF [FF-10], the “D/H Ratio” value is given as 0.87.
